According to US11229623B2 (GlaxoSmithKline Intellectual Property (No.2) Limited, priority 2016, dated 2022):

Each molecule was assayed against T1, human TRPV4 (Homo sapiens, UniProt Q9HBA0) (assay: FLIPR assay for hTRPV4 expressed in BHK cells: inhibition of Agonist Compound-induced calcium signal). Details: IC50, hTRPV4 in BHK/AC9 cells, FLIPR calcium signal, agonist at EC80; reported as range class.
T1 construct: expressed in transfected cells; host or cells: BHK/AC9 cells transduced with BacMam virus
T1 sequence (Q9HBA0 whole entry): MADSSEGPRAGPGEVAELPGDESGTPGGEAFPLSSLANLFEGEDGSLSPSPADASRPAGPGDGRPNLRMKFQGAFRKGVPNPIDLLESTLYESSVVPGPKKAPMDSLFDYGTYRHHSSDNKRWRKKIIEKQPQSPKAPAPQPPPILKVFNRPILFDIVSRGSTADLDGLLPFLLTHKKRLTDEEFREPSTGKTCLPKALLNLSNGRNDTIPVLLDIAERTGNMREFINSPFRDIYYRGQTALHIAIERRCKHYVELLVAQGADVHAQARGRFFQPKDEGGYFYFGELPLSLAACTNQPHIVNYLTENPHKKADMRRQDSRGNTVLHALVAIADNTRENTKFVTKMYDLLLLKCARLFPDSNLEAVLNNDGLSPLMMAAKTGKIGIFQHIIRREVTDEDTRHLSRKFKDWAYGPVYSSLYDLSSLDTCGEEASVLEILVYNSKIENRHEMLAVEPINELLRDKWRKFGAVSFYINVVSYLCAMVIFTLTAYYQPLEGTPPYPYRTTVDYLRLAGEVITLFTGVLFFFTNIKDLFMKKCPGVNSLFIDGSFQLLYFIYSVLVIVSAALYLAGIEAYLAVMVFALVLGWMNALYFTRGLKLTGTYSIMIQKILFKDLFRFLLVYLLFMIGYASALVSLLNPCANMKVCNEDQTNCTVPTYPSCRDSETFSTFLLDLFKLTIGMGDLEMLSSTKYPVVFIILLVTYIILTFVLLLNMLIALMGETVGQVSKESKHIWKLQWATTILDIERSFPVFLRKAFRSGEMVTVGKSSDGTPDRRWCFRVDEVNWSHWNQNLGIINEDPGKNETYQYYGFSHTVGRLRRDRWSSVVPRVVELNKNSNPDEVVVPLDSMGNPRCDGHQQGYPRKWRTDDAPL
Type: cell-based
Outline: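 BHK/AC9 cells transduced with BacMam human TRPV4 (MOI 78), plated 15,000 per well and cultured 24 h at 37° C. Loaded with 2 μM Fluo-4 AM plus 500 μM Brilliant Black in HBSS for 1-1.5 h at room temperature in the dark; intracellular calcium signal read by FLIPR fluorescence.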
In the case of C[Si](C)(C)C#Cc1ccc(S(=O)(=O)N2C[C@H](Oc3ccc(C#N)c(F)c3)[C@](O)(CO)C2)c(C#N)c1 [Example 221, 4-(((3S,4R)-1-((2-cyano-4-((trimethylsilyl)ethynyl)phenyl)sulfonyl)-4-hydroxy-4-(hydroxymethyl)pyrrolidin-3-yl)oxy)-2-fluorobenzonitrile], the IC50 is reported as 0.1 to 10 nM.

Same assay, conditions: hTRPV4 in BHK/AC9 cells, FLIPR calcium signal, agonist at EC80; reported as range class; read-out: IC50
Work on C[C@@H](O)[C@]1(O)CN(S(=O)(=O)c2ccc(OC(F)(F)F)nc2)C[C@@H]1Oc1ccc(C#N)c(F)c1 [Example 208, 2-fluoro-4-(((3S,4R)-4-hydroxy-4-((R)-1-hydroxyethyl)-1-((6-(trifluoromethoxy)pyridin-3-yl)sulfonyl)pyrrolidin-3-yl)oxy)benzonitrile] yielded an IC50 of 10 to 100 nM. Work on C[C@@H](O)[C@]1(O)CN(S(=O)(=O)c2ccc(I)cc2)C[C@@H]1Oc1ccc(C#N)c(F)c1 [Example 209, 2-fluoro-4-(((3S,4R)-4-hydroxy-4-((R)-1-hydroxyethyl)-1-((4-iodophenyl)sulfonyl)pyrrolidin-3-yl)oxy)benzonitrile] yielded an IC50 of 0.1 to 10 nM. Molecule C[C@@H](O)[C@]1(O)CN(S(=O)(=O)c2ccc(OC(F)(F)F)cn2)C[C@@H]1Oc1ccc(C#N)c(F)c1 [Example 210, 2-fluoro-4-(((3S,4R)-4-hydroxy-4-((R)-1-hydroxyethyl)-1-((5-(trifluoromethoxy)pyridin-2-yl)sulfonyl)pyrrolidin-3-yl)oxy)benzonitrile] has an IC50 of 10 to 100 nM. C[C@@H](O)[C@]1(O)CN(S(=O)(=O)c2ccc(C(F)F)cn2)C[C@@H]1Oc1ccc(C#N)c(F)c1 [Example 211, 4-(((3S,4R)-1-((5-(difluoromethyl)pyridin-2-yl)sulfonyl)-4-hydroxy-4-((R)-1-hydroxyethyl)pyrrolidin-3-yl)oxy)-2-fluorobenzonitrile] was tested, and the IC50 was 10 to 100 nM. C[C@@H](O)[C@]1(O)CN(S(=O)(=O)c2ccc(C(F)F)nc2)C[C@@H]1Oc1ccc(C#N)c(F)c1 [Example 212, 4-(((3S,4R)-1-((6-(difluoromethyl)pyridin-3-yl)sulfonyl)-4-hydroxy-4-((R)-1-hydroxyethyl)pyrrolidin-3-yl)oxy)-2-fluorobenzonitrile] showed an IC50 of 10 to 100 nM. Molecule C[C@@H](O)[C@]1(O)CN(S(=O)(=O)c2ccc(OC(F)F)nc2)C[C@@H]1Oc1ccc(C#N)c(F)c1 [Example 213, 4-(((3S,4R)-1-((6-(difluoromethoxy)pyridin-3-yl)sulfonyl)-4-hydroxy-4-((R)-1-hydroxyethyl)pyrrolidin-3-yl)oxy)-2-fluorobenzonitrile] has an IC50 of 10 to 100 nM. CC(C)(O)[C@]1(O)CN(S(=O)(=O)c2ccc(Cl)cn2)C[C@@H]1Oc1ccc(C#N)c(F)c1 [Example 214, 4-(((3S,4S)-1-((5-chloropyridin-2-yl)sulfonyl)-4-hydroxy-4-(2-hydroxypropan-2-yl)pyrrolidin-3-yl)oxy)-2-fluorobenzonitrile] was tested, and the IC50 was 10 to 100 nM. Work on N#Cc1cc(OCC(F)(F)F)c(O[C@H]2CN(S(=O)(=O)c3ccc(Cl)cn3)C[C@]2(O)CO)cc1F [Example 215, 4-(((3S,4S)-1-((5-chloropyridin-2-yl)sulfonyl)-4-hydroxy-4-(hydroxymethyl)pyrrolidin-3-yl)oxy)-2-fluoro-5-(2,2,2-trifluoroethoxy)benzonitrile] yielded an IC50 of 10 to 100 nM. Cc1ccc(S(=O)(=O)N2C[C@H](Oc3ccc(C#N)c(F)c3)[C@](O)(CO)C2)c(C#N)c1 [Example 216, 4-(((3S,4R)-1-((2-cyano-4-methylphenyl)sulfonyl)-4-hydroxy-4-(hydroxymethyl)pyrrolidin-3-yl)oxy)-2-fluorobenzonitrile] was tested, and the IC50 was 0.1 to 10 nM. CCc1ccc(S(=O)(=O)N2C[C@H](Oc3ccc(C#N)c(F)c3)[C@](O)(CO)C2)c(C#N)c1 [Example 217, 4-(((3S,4R)-1-((2-cyano-4-ethylphenyl)sulfonyl)-4-hydroxy-4-(hydroxymethyl)pyrrolidin-3-yl)oxy)-2-fluorobenzonitrile] showed an IC50 of 0.1 to 10 nM. With N#Cc1ccc(O[C@H]2CN(S(=O)(=O)c3ccc(-c4ccccc4)cc3C#N)C[C@@]2(O)CO)cc1F [Example 218, 4-(((3R,4S)-4-(4-cyano-3-fluorophenoxy)-3-hydroxy-3-(hydroxymethyl)pyrrolidin-1-yl)sulfonyl)-[1,1′-biphenyl]-3-carbonitrile] the IC50 was 10 to 100 nM. For CC#Cc1ccc(S(=O)(=O)N2C[C@H](Oc3ccc(C#N)c(F)c3)[C@](O)(CO)C2)c(C#N)c1 [Example 219, 4-(((3S,4R)-1-((2-cyano-4-(prop-1-yn-1-yl)phenyl)sulfonyl)-4-hydroxy-4-(hydroxymethyl)pyrrolidin-3-yl)oxy)-2-fluorobenzonitrile], the IC50 was 0.1 to 10 nM. Molecule C#Cc1ccc(S(=O)(=O)N2C[C@H](Oc3ccc(C#N)c(F)c3)[C@](O)(CO)C2)c(C#N)c1 [Example 220, 4-(((3S,4R)-1-((2-cyano-4-ethynylphenyl)sulfonyl)-4-hydroxy-4-(hydroxymethyl)pyrrolidin-3-yl)oxy)-2-fluorobenzonitrile] has an IC50 of 0.1 to 10 nM. Work on CC#Cc1ccc(S(=O)(=O)N2C[C@H](Oc3ccc(C#N)c(F)c3)[C@](O)(CO)C2)cc1 [Example 222, 2-fluoro-4-(((3S,4R)-4-hydroxy-4-(hydroxymethyl)-1-((4-(prop-1-yn-1-yl)phenyl)sulfonyl)pyrrolidin-3-yl)oxy)benzonitrile] yielded an IC50 of 0.1 to 10 nM. Work on CC#Cc1ccc(S(=O)(=O)N2C[C@H](Oc3ccc(C#N)c(F)c3)[C@](O)(CO)C2)cn1 [Example 223, 2-fluoro-4-(((3S,4R)-4-hydroxy-4-(hydroxymethyl)-1-((6-(prop-1-yn-1-yl)pyridin-3-yl)sulfonyl)pyrrolidin-3-yl)oxy)benzonitrile] yielded an IC50 of 10 to 100 nM. CC#Cc1cc(C#N)ccc1S(=O)(=O)N1C[C@H](Oc2ccc(C#N)c(F)c2)[C@](O)(CO)C1 [Example 224, 4-(((3S,4R)-1-((4-cyano-2-(prop-1-yn-1-yl)phenyl)sulfonyl)-4-hydroxy-4-(hydroxymethyl)pyrrolidin-3-yl)oxy)-2-fluorobenzonitrile] gave an IC50 of 10 to 100 nM. With C#Cc1cc(C(F)(F)F)ccc1S(=O)(=O)N1C[C@H](Oc2ccc(C#N)c(F)c2)[C@](O)(CO)C1 [Example 225, 4-(((3S,4R)-1-((2-ethynyl-4-(trifluoromethyl)phenyl)sulfonyl)-4-hydroxy-4-(hydroxymethyl)pyrrolidin-3-yl)oxy)-2-fluorobenzonitrile] the IC50 was 0.1 to 10 nM. N#Cc1ccc(O[C@H]2CN(S(=O)(=O)c3ccc(C#CC4CC4)nc3)C[C@@]2(O)CO)cc1F [Example 226, 4-(((3S,4R)-1-((6-(cyclopropylethynyl)pyridin-3-yl)sulfonyl)-4-hydroxy-4-(hydroxymethyl)pyrrolidin-3-yl)oxy)-2-fluorobenzonitrile] was tested, and the IC50 was 10 to 100 nM. With CC#Cc1ccc(S(=O)(=O)N2C[C@H](Oc3ccc(C#N)c(F)c3)[C@](O)(CO)C2)nc1 [Example 227, 2-fluoro-4-(((3S,4R)-4-hydroxy-4-(hydroxymethyl)-1-((5-(prop-1-yn-1-yl)pyridin-2-yl)sulfonyl)pyrrolidin-3-yl)oxy)benzonitrile] the IC50 was 0.1 to 10 nM. Molecule C#Cc1ccc(S(=O)(=O)N2C[C@H](Oc3ccc(C#N)c(F)c3)[C@](O)(CO)C2)nc1 [Example 228, 4-(((3S,4R)-1-((5-ethynylpyridin-2-yl)sulfonyl)-4-hydroxy-4-(hydroxymethyl)pyrrolidin-3-yl)oxy)-2-fluorobenzonitrile] has an IC50 of 10 to 100 nM.
